This passage reports IC50 results from patent US10329270B2, “Heteroaryl compounds as BTK inhibitors and uses thereof” (Merck Patent GmbH, priority 2013, dated 2019).

This assay deals with T1, full-length human BTK (Homo sapiens, UniProt Q06187).
T1 construct: 2.5× stocks of full-length human BTK (08-080); purchased CarnaBio USA, Inc., Natick, Mass; 08-080
Nature of the assay: Assay A: BTK IC50 Enzyme Assay (microfluidic off-chip mobility shift kinase assay). It is filed as biochemical. Particulars: full-length human BTK, kinKDR peptide substrate, incubated 90 min at 27 C; read-out: Assay A (Time Dependent BTK Enzyme Assay IC50). Put shortly:
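Off-chip microfluidic mobility shift assay with full-length human BTK; phosphorylated and unphosphorylated peptide substrate were separated by charge/mass on a LabChip 3000.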

A value given as a limit tells only on which side of the number the result lay.

T1 sequence (Q06187 whole entry): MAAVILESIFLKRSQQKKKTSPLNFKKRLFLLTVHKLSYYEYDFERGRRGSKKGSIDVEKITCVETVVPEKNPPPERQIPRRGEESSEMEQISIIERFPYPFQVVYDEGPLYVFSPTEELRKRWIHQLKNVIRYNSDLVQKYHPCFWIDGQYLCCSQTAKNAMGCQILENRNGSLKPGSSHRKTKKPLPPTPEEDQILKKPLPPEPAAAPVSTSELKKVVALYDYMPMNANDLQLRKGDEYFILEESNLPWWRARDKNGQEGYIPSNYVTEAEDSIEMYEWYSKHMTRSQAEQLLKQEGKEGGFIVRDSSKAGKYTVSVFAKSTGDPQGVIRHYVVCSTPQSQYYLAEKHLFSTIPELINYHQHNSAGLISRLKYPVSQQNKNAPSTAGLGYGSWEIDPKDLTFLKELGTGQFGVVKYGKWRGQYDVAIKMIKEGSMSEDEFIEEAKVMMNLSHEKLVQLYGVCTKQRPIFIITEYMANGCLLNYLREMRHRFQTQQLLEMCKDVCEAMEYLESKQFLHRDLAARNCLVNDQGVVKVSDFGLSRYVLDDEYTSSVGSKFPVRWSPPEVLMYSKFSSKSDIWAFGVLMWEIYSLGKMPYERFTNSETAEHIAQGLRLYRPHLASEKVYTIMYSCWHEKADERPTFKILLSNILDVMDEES

By IC50 is commonly meant the point on the concentration scale where inhibition reaches its midpoint. As for `C=CC(=O)NC1CCN(c2cnc(Oc3ccc(Oc4cccc(F)c4)cc3)c(C(N)=O)c2)C1` (centres unmarked) [Compound 219, 5-(3-Acryloylamino-pyrrolidin-1-yl)-2-[4-(3-fluoro-phenoxy)-phenoxy]-nicotinamide], the IC50 lay in the range of 100 to 1000 nM. In the case of `C=CC(=O)NC1CCCN(c2cnc(Oc3ccc(Oc4cccc(F)c4)cc3)c(C(N)=O)c2)C1` (centres unmarked) [Compound 220, 3-Acryloylamino-6′-[4-(3-fluoro-phenoxy)-phenoxy]-3,4,5,6-tetrahydro-2H-[1,3′]bipyridinyl-5′-carboxylic acid amide], the IC50 was in the range of 1000 to 5000 nM. Regarding `C/C=C/C(=O)NC1CCN(c2cnc(Oc3ccc(Oc4cccc(F)c4)cc3)c(C(N)=O)c2)C1` (centres unmarked) [Compound 221, 5-[3-((E)-But-2-enoylamino)-pyrrolidin-1-yl]-2-[4-(3-fluoro-phenoxy)-phenoxy]-nicotinamide], the IC50 is over 5000 nM. Under `C/C=C/C(=O)NC1CCCN(c2cnc(Oc3ccc(Oc4cccc(F)c4)cc3)c(C(N)=O)c2)C1` (centres unmarked) [Compound 222, 3-((E)-But-2-enoylamino)-6′-[4-(3-fluoro-phenoxy)-phenoxy]-3,4,5,6-tetrahydro-2H-[1,3′]bipyridinyl-5′-carboxylic acid amide] stands over 5000 nM. Under `C=CC(=O)N1CCCC(Nc2cnc(Oc3ccc(Oc4ccccc4)cc3)c(C(N)=O)c2)C1` (centres unmarked) [Compound 223, 5-(1-Acryloyl-piperidin-3-ylamino)-2-(4-phenoxy-phenoxy)-nicotinamide] stands 100 to 1000 nM; under `C=CC(=O)N1CCC2(CCN(c3cnc(Oc4ccc(Oc5ccccc5)cc4)c(C(N)=O)c3)C2)C1` (centres unmarked) [Compound 224, 5-(7-Acryloyl-2,7-diaza-spiro[4.4]non-2-yl)-2-(4-phenoxy-phenoxy)-nicotinamide], 100 to 1000 nM. For `C=CC(=O)N1CC2CCC1CN2c1ncc(C(N)=O)c(Oc2ccc(Oc3ccccc3)cc2)n1` (centres unmarked) [Compound 225, 2-(5-acryloyl-2,5-diazabicyclo[2.2.2]octan-2-yl)-4-(4-phenoxyphenoxy)pyrimidine-5-carboxamide] the value was under 100 nM; for `C=CC(=O)N[C@@H]1CCCN(c2nc(Nc3ccc(N4CCN(C)CC4)cc3)c(C(N)=O)cc2F)C1` [Compound 226, (R)-3-Acryloylamino-3′-fluoro-6′-[4-(4-methyl-piperazin-1-yl)-phenylamino]-3,4,5,6-tetrahydro-2H-[1,2′]bipyridinyl-5′-carboxylic acid amide], under 100 nM; for `C=CC(=O)N1CCC(Nc2cnc(Oc3ccc(Oc4cccc(F)c4)cc3)c(C(N)=O)c2)CC1` [Compound 228, 5-(1-Acryloyl-piperidin-4-ylamino)-2-[4-(3-fluoro-phenoxy)-phenoxy]-nicotinamide], under 100 nM. For the compound `C/C=C/C(=O)N1CCC(Nc2cnc(Oc3ccc(Oc4cccc(F)c4)cc3)c(C(N)=O)c2)C1` (centres unmarked) [Compound 229, 5-[1-((E)-But-2-enoyl)-pyrrolidin-3-ylamino]-2-[4-(3-fluoro-phenoxy)-phenoxy]-nicotinamide], the IC50 was in the range of 1000 to 5000 nM. `C/C=C/C(=O)N1CCC(Nc2cnc(Oc3ccc(Oc4cccc(F)c4)cc3)c(C(N)=O)c2)CC1` [Compound 230, 5-[1-((E)-But-2-enoyl)-piperidin-4-ylamino]-2-[4-(3-fluoro-phenoxy)-phenoxy]-nicotinamide]: the IC50 lay within 1000 to 5000 nM. For `C/C=C/C(=O)N1CCCC(Nc2cnc(Oc3ccc(Oc4cccc(F)c4)cc3)c(C(N)=O)c2)C1` (centres unmarked) [Compound 231, (E)-5-((1-(but-2-enoyl)piperidin-3-yl)amino)-2-(4-(3-fluorophenoxy)phenoxy)nicotinamide] the value was 1000 to 5000 nM; for `C/C=C/C(=O)N1CCC2(CCN(c3cnc(Oc4ccc(Oc5cccc(F)c5)cc4)c(C(N)=O)c3)C2)C1` (centres unmarked) [Compound 232, (E)-5-(7-(but-2-enoyl)-2,7-diazaspiro[4.4]nonan-2-yl)-2-(4-(3-fluorophenoxy)phenoxy) nicotinamide], 1000 to 5000 nM. In the case of `C=CC(=O)N1CCC2(CCN(c3cnc(Oc4ccc(Oc5cccc(F)c5)cc4)c(C(N)=O)c3)C2)C1` (centres unmarked) [Compound 233, 5-(7-acryloyl-2,7-diazaspiro[4.4]nonan-2-yl)-2-(4-(3-fluorophenoxy)phenoxy)nicotinamide], the half-inhibitory concentration (IC50) fell in the range of 100 to 1000 nM. Under `C/C=C/C(=O)N1CCC(Nc2cnc(Oc3ccc(Oc4ccccc4)cc3)c(C(N)=O)c2)CC1` [Compound 234, 5-[1-((E)-But-2-enoyl)-piperidin-4-ylamino]-2-(4-phenoxy-phenoxy)-nicotinamide] stands 1000 to 5000 nM. Turning to `C/C=C/C(=O)N1CC2CN(c3cnc(Oc4ccc(Oc5cccc(F)c5)cc4)c(C(N)=O)c3)CC2C1` (centres unmarked) [Compound 235, 5-[5-((E)-But-2-enoyl)-hexahydro-pyrrolo[3,4-c]pyrrol-2-yl]-2-[4-(3-fluoro-phenoxy)-phenoxy]-nicotinamide], the IC50 was over 5000 nM.

`N#CNC(=O)N1CCN(c2ccc(C(N)=O)c(Oc3ccc(Oc4ccccc4)cc3)n2)CC1` [Compound 237, 4-(5-carbamoyl-6-(4-phenoxyphenoxy)pyridin-2-yl)-N-cyanopiperazine-1-carboxamide]: the IC50 lay within 1000 to 5000 nM. Under `C=CC(=O)N1CC2CN(c3cnc(Oc4ccc(Oc5cccc(F)c5)cc4)c(C(N)=O)c3)CC2C1` (centres unmarked) [Compound 238, 5-(5-Acryloyl-hexahydro-pyrrolo[3,4-c]pyrrol-2-yl)-2-[4-(3-fluoro-phenoxy)-phenoxy]-nicotinamide] stands 100 to 1000 nM; under `N#CN1CCCC(Nc2ncc(C(N)=O)c(Oc3ccc(Oc4ccccc4)cc3)n2)C1` (centres unmarked) [Compound 239, 2-[(1-cyanopiperidin-3-yl)amino]-4-(4-phenoxyphenoxy)pyrimidine-5-carboxamide], 1000 to 5000 nM.

On to `N#CN1CCC[C@@H](c2cnc(Oc3ccc(Oc4ccccc4)cc3)c(C(N)=O)c2)C1` [Compound 240, (S)-5-(1-cyanopiperidin-3-yl)-2-(4-phenoxyphenoxy)nicotinamide], for which the IC50 was 100 to 1000 nM.

In the case of `N#CN1CC2(CC(Nc3ncc(C(N)=O)c(Oc4ccc(Oc5ccccc5)cc4)n3)C2)C1` [Compound 242, 2-[(2-cyano-2-azaspiro[3.3]heptan-6-yl]amino)-4-(4-phenoxyphenoxy)pyrimidine-5-carboxamide], the IC50 is over 5000 nM. For `N#CN1CCC(Nc2cnc(Oc3ccc(Oc4ccccc4)cc3)c(C(N)=O)c2)C1` (centres unmarked) [Compound 243, 5-[(1-cyanopyrrolidin-3-yl)amino]-2-(4-phenoxyphenoxy)pyridine-3-carboxamide] the value was 100 to 1000 nM; for `N#CN1CCC(c2cnc(Oc3ccc(Oc4ccccc4)cc3)c(C(N)=O)c2)CC1` [Compound 244, 5-(1-cyanopiperidin-4-yl)-2-(4-phenoxyphenoxy)pyridine-3-carboxamide], 1000 to 5000 nM; for `N#CN1CCC(c2cnc(Oc3ccc(Oc4ccccc4)cc3)c(C(N)=O)c2)C1` (centres unmarked) [Compound 245, 5-(1-cyanopyrrolidin-3-yl)-2-(4-phenoxyphenoxy)pyridine-3-carboxamide], 1000 to 5000 nM. For `N#CN1CCC(Nc2cnc(Oc3ccc(Oc4ccccc4)cc3)c(C(N)=O)c2)CC1` [Compound 246, 5-[(1-cyanopiperidin-4-yl)amino]-2-(4-phenoxyphenoxy)pyridine-3-carboxamide] the value was over 5000 nM; for `N#CN1CCCC(Nc2cnc(Oc3ccc(Oc4ccccc4)cc3)c(C(N)=O)c2)C1` (centres unmarked) [Compound 247, 5-[(1-cyanopiperidin-3-yl)amino]-2-(4-phenoxyphenoxy)pyridine-3-carboxamide], 1000 to 5000 nM.
